In PMC9496282, “Analysis of Phosphatase Activity in a Droplet-Based Microfluidic Chip” (Biosensors, 2022) one finds IC50 data, which are given here for one compound.

For the experiment, the target named is T1, dual specificity phosphatase 22 (DUSP22) (Homo sapiens, UniProt Q9NRW4).
T1 construct: recombinant DUSP22 from pET-28a(+)-DUSP22, purified from E. coli BL21(DE3)
T1 sequence (Q9NRW4 2-184): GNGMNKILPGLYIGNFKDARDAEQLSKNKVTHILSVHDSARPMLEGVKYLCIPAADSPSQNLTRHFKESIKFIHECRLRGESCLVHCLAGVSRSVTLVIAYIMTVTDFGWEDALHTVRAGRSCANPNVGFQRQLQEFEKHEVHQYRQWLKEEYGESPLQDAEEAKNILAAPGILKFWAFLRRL
Put plainly: fluorescent 3-OMFP phosphatase inhibition assay in droplet microfluidic chip (microwell plate IC50 […]). It is filed as biochemical.

Compound `CCN(N=O)c1ccc(O)c(O)c1` [ethyl-3,4-dephostatin] displayed an IC50 of 5.79 ± 1.09 µM.

A word on the IC50: it is the point on the concentration scale where inhibition reaches its midpoint.
